Measurements: patent publication US20240148664A1, “LIPID AND COMPOSITION” (SOGO PHARMACEUTICAL CO., LTD., priority 2021, published 2024)

Experiments:
[1] = Measurement of particle size, polydispersity index and zeta potential of lipid nanoparticle (Zetasizer); format: physicochemical
Description: 30 μL of each of the dialyzed lipid nanoparticle-containing solutions obtained by the above operation was measured out, 800 μL of ultrapure water was added to dilute the lipid nanoparticle-containing solution, and the diluted preparation solution was used to measure the particle size (nm) and the polydispersity index (PDI) by using a Zetasizer (manufactured by Malvern Panalytical, Zetasizer nano Ultra). The particle size was evaluated by Z-average in ultrapure water. The zeta potential was measured by using pH 7.4 Tris-HCl as a dilute solution.

[2] = siRNA / mRNA encapsulation rate of lipid nanoparticle (RiboGreen); format: physicochemical; conditions: mRNA encapsulation rate of lipid nanoparticle (Table 3)
Description: The siRNA encapsulation rate and the mRNA encapsulation rate of the lipid nanoparticle were obtained as follows. First, a surfactant (Sigma-Aldrich, Triton (registered trademark), X-100 (reducing type)) was added to the lipid nanoparticle-containing solution to disrupt the lipid nanoparticle to release the encapsulated siRNA or mRNA. The amounts of the lipid nanoparticle-containing solution and the surfactant were adjusted such that the siRNA or the mRNA was 2 pmol and the surfactant was 1% in 40 μL of the solution after adding the surfactant to the lipid nanoparticle-containing solution. Next, the RiboGreen reagent (reagent that reacts with siRNA to emit fluorescence, manufactured by Thermo Fisher Scientific, Quant-iT (registered trademark) RiboGreen (registered trademark) RNA Assay Kit) was added to the solution, and the fluorescence intensity was measured under conditions of an excitation wavelength of 480 nm and a fluorescence wavelength of 520 nm with a fluorescence intensity meter (manufactured by TECAN, Infinite M200). Specifically, 75 μL of the RiboGreen reagent diluted to 1/2000 was added to a diluted solution obtained by adding 65 μL of citrate buffer to 10 μL of the solution, and the fluorescence intensity was measured. This makes it possible to relatively measure the total amount of the siRNA or the total amount of the mRNA present in the solution.
Subsequently, the RiboGreen reagent was added to the lipid nanoparticle-containing solution without adding a surfactant, and the fluorescence intensity was measured in the same manner with a fluorescence intensity meter. By not adding a surfactant, it is possible to relatively measure the amount of the siRNA or the mRNA free in the solution without being encapsulated in the lipid nanoparticle.
Then, the fluorescence intensity obtained from the solution to which the surfactant was added obtained as described above was fluorescence intensity a, and the fluorescence intensity thus obtained from the solution to which no surfactant was added obtained as described above was fluorescence intensity b, and according to the expression (a−b)/a×100, the siRNA encapsulation rate (%) or the mRNA encapsulation rate (%) of the lipid nanoparticle was obtained. Each of fluorescence intensity a and fluorescence intensity b is a value obtained by subtracting a blank from the arithmetic average value of the results of three measurements for each solution. The blank was measured by carrying out the same operation on a well containing water containing no cell or lipid nanoparticle.

NIH3T3 cells = experiment: Evaluation of protein expression effect (luciferase luminescence), Cell experiment 2; format: cell-based; conditions: lipid nanoparticle containing mRNA, 100 ng mRNA/20 μL per well, 24 hours, amount of luminescence as index
Description: (§1) For lipids (Ia), (Ib), and (Ie) of Examples 1, 2, and 5, a cell experiment was carried out by using HEK293T cells and NIH3T3 cells in order to evaluate lipid nanoparticles encapsulating an mRNA. By transfecting the cells with lipid nanoparticles and measuring the amount of a predetermined protein produced, the performance of the lipid nanoparticles used can be evaluated. Hereinafter, the procedure of the cell experiment will be shown.
(§2) A. Seeding of Cells • (i) A liquid medium (DMEM High glucose, FBS+, P/S+) was temperature-controlled in an incubator set at 37° C. • (ii) A cryotube containing cells was taken out from a −80° C. freezer and thawed at once in the incubator set at 37° C. • (iii) A test tube was subjected to a centrifuge to precipitate the cells. • (iv) The supernatant was aspirated, and the liquid medium was added and gently tapped to disperse the cells. • (v) A small amount of the cells-dispersed liquid medium was collected, and the number of cells was observed and counted under a microscope. • (vi) The cells were seeded in three 24-well black plates such that the number of cells was 1×10^4 cells per well. The 24-well black plates were placed in an incubator, and the cells were cultured for 24 hours under conditions of 37° C. and 5% CO2.
(§3) B. Transfection • (i) A lipid nanoparticle-containing solution including an mRNA was concentrated such that the mRNA concentration was 100 ng/20 μL (=0.005 μg/μL). • (ii) A liquid medium (DMEM High glucose, FBS-, P/S-) and FBS were warmed to 37° C., required amounts of the liquid medium and FBS were mixed (FBS concentration of liquid medium at this time: 12.5%), and the prepared liquid medium was filter-sterilized through a 0.22 μm filter. • (iii) The liquid medium supernatant in the 24-well black plates in which the cells were cultured was aspirated and 80 μL per well of the prepared liquid medium was added. • (iv) 20 μL per well of RFW and the lipid nanoparticle-containing solution adjusted to the above concentration was added. • (v) The 24-well black plates were placed in an incubator, and the cells were cultured for 24 hours under conditions of 37° C. and 5% CO2.
(§4) C. Evaluation of Protein Expression Effect (Detection of Gaussia Luciferase (GLuc))
(§5) Evaluation of the protein expression effect was carried out by using Gaussia Luciferase Assay Kit manufactured by Thermo Scientific. • (i) The cells cultured in B. (v) above were taken out from the incubator and allowed to stand at room temperature. • (ii) 20 μL of the supernatant in the plates was collected and added to a fresh 96-well white plate. • (iii) 100× Coelenterazine and Gaussia Glow Assay Buffer attached to the kit were returned to room temperature and mixed at 1:100 to prepare a solution. The prepared solution was added to the supernatant at 50 μL per well by using a multipipette. • (iv) The plate was shielded from light with aluminum foil, allowed to stand for 10 minutes, and then measured for the amount of luminescence with a plate reader (manufactured by TECAN, Infinite M200) (measurement time: 2 seconds), and the protein expression level was calculated by using the resulting amount of luminescence as an index.

HEK293T cells = experiment: as above; format: cell-based; conditions: lipid nanoparticle containing mRNA, 100 ng mRNA/20 μL per well, 24 hours, amount of luminescence as index
Description: as §1, §2, §3, §4, §5

[3] = test system: HEK293T cells and NIH3T3 cells; experiment: Evaluation of toxicity (CellTiter-Fluor Cell Viability Assay, CTF); format: cell-based; conditions: lipid nanoparticle containing mRNA; number of surviving cells relative to cells without lipid nanoparticle set at 1; one rating per lipid, printed on the HEK293T line
Description: as §1
as §2, with “CO2. […]” for “CO2.”
D. Evaluation of Toxicity (CellTiter-Fluor (Registered Trademark) Cell Viability Assay) • (i) The CellTiter-Fluor (registered trademark) Cell Viability (CTF) Assay Reagent was completely thawed in a 37° C. water bath. • (ii) GF-AFC Substrate was uniformly mixed by using a vortex mixer. • (iii) The required amounts of Buffer and GF-AFC Substrate attached to the CTF Assay Reagent (Kit) were mixed at a mixing ratio of 10 mL:10 μL. • (iv) 100 μL per well of the mixed CTF Reagent mixture was added to a 24-well black plate containing the cells cultured in B. (v) above, and the plate was quickly shielded from light with aluminum foil, and then shaken on a plate shaker for 30 seconds. • (v) The plate was placed in an incubator, […], and the cells were cultured for 30 minutes under conditions of 37° C. and 5% CO2. • (vi) The fluorescence intensity was measured with a plate reader (excitation wavelength of 380 nm, fluorescence wavelength of 505 nm). Based on the obtained measurement results, the number of surviving cells was calculated with the fluorescence intensity of cells to which no lipid nanoparticle was added set at 1. […]

- PDI ([1]; lipid nanoparticle containing mRNA (Table 3)): 0.232
- Zeta potential (mV) ([1]; lipid nanoparticle containing mRNA (Table 3), pH 7.4 Tris-HCl): −4.3 mV
- Particle size (nm) ([1]; lipid nanoparticle containing mRNA, main lipid/DPPC/cholesterol=45/10/45 (r1: r1/DSPC/cholesterol/PEG2000-DMG=50/10/38.5/1.5)): 64.4 nm
- Encapsulation rate (%) [2]: 93%
SMILES: CCCCCCCCCCCOC(=O)CCCCCN(CCO)CCCCCCCC(=O)OC(CCCCCCCC)CCCCCCCC [Reference Example 1, reference compound]
- Protein expression level (NIH3T3 cells): 7,000
- Protein expression level (HEK293T cells): 320,000
- CTF Assay [3]: ⊚ (When the number of surviving cells was more than 0.80 and 1.00 or less, a rating of double-circle (excellent) was given)
